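All cell lines were grown in 96-well plates and treated with compound for 48 hours. TGI: total growth inhibition.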
Key:
Assay in all cases: growth of human tumour cells (NCI), 48 h
MOLT-4 leukemia = test system: MOLT-4 leukemia
DMS 273 small cell lung = test system: DMS 273 small cell lung
UACC-62 melanoma = test system: UACC-62 melanoma
DLD-1 colon = test system: DLD-1 colon
LXFL 529 NSCLC = test system: LXFL 529 NSCLC
UACC-257 melanoma = test system: UACC-257 melanoma
SW-620 colon = test system: SW-620 colon
HT29 colon = test system: HT29 colon
OVCAR-4 ovarian = test system: OVCAR-4 ovarian
SF-539 CNS = test system: SF-539 CNS
MALME-3M melanoma = test system: MALME-3M melanoma
RPMI-8226 leukemia = test system: RPMI-8226 leukemia
HOP-62 NSCLC = test system: HOP-62 NSCLC
K-562 leukemia = test system: K-562 leukemia
KM12 colon = test system: KM12 colon
HOP-92 NSCLC = test system: HOP-92 NSCLC
ACHN renal = test system: ACHN renal
HCT-116 colon = test system: HCT-116 colon
NCI-H23 lung = test system: NCI-H23 lung
SK-MEL-28 melanoma = test system: SK-MEL-28 melanoma
SN12C renal = test system: SN12C renal
HCT-15 colon = test system: HCT-15 colon
OVCAR-3 ovarian = test system: OVCAR-3 ovarian
NCI-H522 lung = test system: NCI-H522 lung
SK-MEL-5 melanoma = test system: SK-MEL-5 melanoma
NCI-H226 lung = test system: NCI-H226 lung
CCRF-CEM leukemia = test system: CCRF-CEM leukemia
LOX IMVI melanoma = test system: LOX IMVI melanoma
CAKI-1 renal = test system: CAKI-1 renal
A549 NSCLC = test system: A549 NSCLC
786-0 renal = test system: 786-0 renal
XF 498 CNS = test system: XF 498 CNS
SK-MEL-2 melanoma = test system: SK-MEL-2 melanoma
A498 renal = test system: A498 renal
COLO 205 colon = test system: COLO 205 colon
SR leukemia = test system: SR leukemia
SNB-75 CNS = test system: SNB-75 CNS
M19-MEL melanoma = test system: M19-MEL melanoma
RXF-631 renal = test system: RXF-631 renal
U251 CNS = test system: U251 CNS
SNB-19 CNS = test system: SNB-19 CNS
RXF 393 renal = test system: RXF 393 renal
SF-295 CNS = test system: SF-295 CNS
OVCAR-8 ovarian = test system: OVCAR-8 ovarian
OVCAR-5 ovarian = test system: OVCAR-5 ovarian
HCC-2998 colon = test system: HCC-2998 colon
DMS 114 small cell lung = test system: DMS 114 small cell lung
HOP-18 NSCLC = test system: HOP-18 NSCLC
IGROV1 ovarian = test system: IGROV1 ovarian
UO-31 renal = test system: UO-31 renal
NCI-H460 lung = test system: NCI-H460 lung
TK-10 renal = test system: TK-10 renal
M14 melanoma = test system: M14 melanoma
SF-268 CNS = test system: SF-268 CNS
KM20L2 colon = test system: KM20L2 colon
EKVX NSCLC = test system: EKVX NSCLC
SK-OV-3 ovarian = test system: SK-OV-3 ovarian
HL-60(TB) leukemia = test system: HL-60(TB) leukemia

COc1cccc(/C=C2\CCC(CCN(C)C)(C3=CCCC3)C2=O)c1 (configuration not stated)
TGI (MOLT-4 leukemia): 34.1 µM | TGI (DMS 273 small cell lung): 28 µM | TGI (UACC-62 melanoma): 30 µM | TGI (DLD-1 colon): 36.4 µM | TGI (LXFL 529 NSCLC): 28.9 µM | TGI (UACC-257 melanoma): 28.8 µM | TGI (SW-620 colon): 27.1 µM | TGI (HT29 colon): 29.2 µM | TGI (OVCAR-4 ovarian): 30.5 µM | TGI (SF-539 CNS): 29.7 µM | TGI (MALME-3M melanoma): 31.2 µM | TGI (RPMI-8226 leukemia): 41.7 µM | TGI (HOP-62 NSCLC): 32 µM | TGI (K-562 leukemia): 36 µM | TGI (KM12 colon): 31 µM | TGI (HOP-92 NSCLC): 28.6 µM | TGI (ACHN renal): 30.5 µM | TGI (HCT-116 colon): 27.7 µM | TGI (NCI-H23 lung): 41.4 µM | TGI (SK-MEL-28 melanoma): 31.3 µM | TGI (SN12C renal): 28.6 µM | TGI (HCT-15 colon): 31.1 µM | TGI (OVCAR-3 ovarian): 34 µM | TGI (NCI-H522 lung): 26.9 µM | TGI (SK-MEL-5 melanoma): 32.4 µM | TGI (NCI-H226 lung): 31.2 µM | TGI (CCRF-CEM leukemia): 40.8 µM | TGI (LOX IMVI melanoma): 30.2 µM | TGI (CAKI-1 renal): 25.2 µM | TGI (A549 NSCLC): 32.6 µM | TGI (786-0 renal): 27.9 µM | TGI (XF 498 CNS): 31.9 µM | TGI (SK-MEL-2 melanoma): 29.9 µM | TGI (A498 renal): 30.8 µM | TGI (COLO 205 colon): 21.3 µM | TGI (SR leukemia): 57.4 µM | TGI (SNB-75 CNS): 35 µM | TGI (M19-MEL melanoma): 30 µM | TGI (RXF-631 renal): 43.4 µM | TGI (U251 CNS): 30.6 µM | TGI (SNB-19 CNS): 31.1 µM | TGI (RXF 393 renal): 21.7 µM | TGI (SF-295 CNS): 31.1 µM | TGI (OVCAR-8 ovarian): 32.1 µM | TGI (OVCAR-5 ovarian): 28.1 µM | TGI (HCC-2998 colon): 30.4 µM | TGI (DMS 114 small cell lung): 31.4 µM | TGI (HOP-18 NSCLC): 27.2 µM | TGI (IGROV1 ovarian): 32.5 µM | TGI (UO-31 renal): 26.5 µM | TGI (NCI-H460 lung): 29.9 µM | TGI (TK-10 renal): 29.3 µM | TGI (M14 melanoma): 27.4 µM | TGI (SF-268 CNS): 45.6 µM

[C-]#[N+][C@@H]1C2[C@H](CC[C@@]1(C)O)C(=C)CC[C@@H]2[C@@]1(C)CC[C@H](Cl)C(C)(C)O1 (some centres not stated)
TGI (UACC-62 melanoma): 20.1 µM | TGI (DLD-1 colon): 50.8 µM | TGI (LXFL 529 NSCLC): > 100 µM | TGI (UACC-257 melanoma): 45.4 µM | TGI (SW-620 colon): 31.1 µM | TGI (HT29 colon): 29.8 µM | TGI (OVCAR-4 ovarian): 33.7 µM | TGI (SF-539 CNS): 39.4 µM | TGI (MALME-3M melanoma): 48.1 µM | TGI (RPMI-8226 leukemia): 20.9 µM | TGI (K-562 leukemia): 13.5 µM | TGI (KM12 colon): 25 µM | TGI (ACHN renal): 33.2 µM | TGI (HCT-116 colon): 12.8 µM | TGI (NCI-H23 lung): 53.4 µM | TGI (SK-MEL-28 melanoma): > 100 µM | TGI (SN12C renal): 26.3 µM | TGI (HCT-15 colon): 18 µM | TGI (KM20L2 colon): > 100 µM | TGI (OVCAR-3 ovarian): 9.97 µM | TGI (NCI-H522 lung): 22.4 µM | TGI (SK-MEL-5 melanoma): 15.7 µM | TGI (NCI-H226 lung): 20.8 µM | TGI (EKVX NSCLC): 60.2 µM | TGI (CCRF-CEM leukemia): 21.8 µM | TGI (LOX IMVI melanoma): 16.8 µM | TGI (CAKI-1 renal): 27.7 µM | TGI (A549 NSCLC): 77.6 µM | TGI (786-0 renal): 23.8 µM | TGI (XF 498 CNS): 26.4 µM | TGI (SK-MEL-2 melanoma): 27.8 µM | TGI (A498 renal): 41.7 µM | TGI (COLO 205 colon): 12.8 µM | TGI (SK-OV-3 ovarian): 82.6 µM | TGI (SNB-75 CNS): > 100 µM | TGI (M19-MEL melanoma): 21.9 µM | TGI (RXF-631 renal): > 100 µM | TGI (U251 CNS): 36.3 µM | TGI (SNB-19 CNS): > 100 µM | TGI (RXF 393 renal): 35.4 µM | TGI (SF-295 CNS): 28.3 µM | TGI (OVCAR-8 ovarian): 21 µM | TGI (HL-60(TB) leukemia): 5.66 µM | TGI (HCC-2998 colon): 36.7 µM | TGI (DMS 114 small cell lung): 9.08 µM | TGI (HOP-18 NSCLC): 21.9 µM | TGI (IGROV1 ovarian): 41.7 µM | TGI (UO-31 renal): 7.17 µM | TGI (NCI-H460 lung): 52.6 µM | TGI (TK-10 renal): 84.2 µM | TGI (M14 melanoma): 12.6 µM | TGI (SF-268 CNS): > 100 µM

N#CC(/C(CCCC(=O)Nc1cccc([N+](=O)[O-])c1)=N/NC(=O)c1cc2ccccc2cc1O)c1ccccc1 (configuration not stated)
TGI (MOLT-4 leukemia): > 100 µM | TGI (UACC-62 melanoma): 45 µM | TGI (DLD-1 colon): > 100 µM | TGI (LXFL 529 NSCLC): > 100 µM | TGI (UACC-257 melanoma): 98.5 µM | TGI (SW-620 colon): > 100 µM | TGI (HT29 colon): > 100 µM | TGI (OVCAR-4 ovarian): > 100 µM | TGI (SF-539 CNS): 72.5 µM | TGI (MALME-3M melanoma): > 100 µM | TGI (RPMI-8226 leukemia): > 100 µM | TGI (HOP-62 NSCLC): > 100 µM | TGI (K-562 leukemia): > 100 µM | TGI (KM12 colon): > 100 µM | TGI (HOP-92 NSCLC): 95.9 µM | TGI (ACHN renal): > 100 µM | TGI (HCT-116 colon): > 100 µM | TGI (NCI-H23 lung): 61.5 µM | TGI (SK-MEL-28 melanoma): > 100 µM | TGI (SN12C renal): > 100 µM | TGI (HCT-15 colon): > 100 µM | TGI (KM20L2 colon): > 100 µM | TGI (OVCAR-3 ovarian): > 100 µM | TGI (NCI-H522 lung): 56.9 µM | TGI (SK-MEL-5 melanoma): 40.8 µM | TGI (NCI-H226 lung): > 100 µM | TGI (EKVX NSCLC): > 100 µM | TGI (CCRF-CEM leukemia): 43.3 µM | TGI (LOX IMVI melanoma): 49.4 µM | TGI (CAKI-1 renal): > 100 µM | TGI (A549 NSCLC): > 100 µM | TGI (786-0 renal): 96.3 µM | TGI (XF 498 CNS): 63 µM | TGI (A498 renal): 92.8 µM | TGI (COLO 205 colon): 46.9 µM | TGI (SK-OV-3 ovarian): > 100 µM | TGI (SR leukemia): > 100 µM | TGI (SNB-75 CNS): > 100 µM | TGI (M19-MEL melanoma): 34.9 µM | TGI (RXF-631 renal): > 100 µM | TGI (U251 CNS): > 100 µM | TGI (SNB-19 CNS): > 100 µM | TGI (RXF 393 renal): 72.3 µM | TGI (SF-295 CNS): > 100 µM | TGI (OVCAR-8 ovarian): > 100 µM | TGI (OVCAR-5 ovarian): > 100 µM | TGI (HL-60(TB) leukemia): 48.7 µM | TGI (HCC-2998 colon): > 100 µM | TGI (DMS 114 small cell lung): 45.5 µM | TGI (HOP-18 NSCLC): > 100 µM | TGI (IGROV1 ovarian): > 100 µM | TGI (UO-31 renal): > 100 µM | TGI (NCI-H460 lung): > 100 µM | TGI (TK-10 renal): > 100 µM | TGI (M14 melanoma): 39.6 µM | TGI (SF-268 CNS): > 100 µM

Reference: PubChem BioAssay (NCI)
